Test results from PubChem BioAssay (NCI).
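In this assay, cells in 96-well plates receive the compound at five concentrations for 48 hours. Endpoints are linearly interpolated between the surrounding concentrations. GI50: concentration for 50% inhibition of growth. The concentration for full growth arrest is given as TGI.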

Legend:
Test in all cases: inhibition of tumour cell growth, NCI panel, 48 h
[1] = system: M14 melanoma
[2] = system: DU-145 prostate
[3] = system: SN12C renal
[4] = system: NCI-H226 lung
[5] = system: HOP-92 NSCLC
[6] = system: UACC-257 melanoma
[7] = system: EKVX NSCLC
[8] = system: T-47D breast
[9] = system: MCF7 breast
[10] = system: SNB-19 CNS
[11] = system: PC-3 prostate
[12] = system: A498 renal
[13] = system: HT29 colon
[14] = system: A549 NSCLC
[15] = system: K-562 leukemia
[16] = system: UACC-62 melanoma
[17] = system: NCI-H460 lung
[18] = system: KM12 colon
[19] = system: IGROV1 ovarian
[20] = system: RXF 393 renal
[21] = system: SR leukemia
[22] = system: SF-268 CNS
[23] = system: NCI-H522 lung
[24] = system: CAKI-1 renal
[25] = system: MOLT-4 leukemia
[26] = system: NCI/ADR-RES ovarian
[27] = system: 786-0 renal
[28] = system: SK-MEL-5 melanoma
[29] = system: TK-10 renal
[30] = system: HOP-62 NSCLC
[31] = system: ACHN renal
[32] = system: UO-31 renal
[33] = system: OVCAR-8 ovarian
[34] = system: U251 CNS
[35] = system: LOX IMVI melanoma
[36] = system: SK-MEL-2 melanoma
[37] = system: RPMI-8226 leukemia
[38] = system: OVCAR-4 ovarian
[39] = system: HCT-116 colon
[40] = system: HL-60(TB) leukemia
[41] = system: SK-MEL-28 melanoma
[42] = system: HCT-15 colon
[43] = system: SK-OV-3 ovarian
[44] = system: SW-620 colon
[45] = system: NCI-H23 lung
[46] = system: OVCAR-3 ovarian
[47] = system: OVCAR-5 ovarian
[48] = system: MALME-3M melanoma
[49] = system: BT-549 breast
[50] = system: SF-295 CNS
[51] = system: MDA-MB-435
[52] = system: HCC-2998 colon
[53] = system: SNB-75 CNS
[54] = system: MDA-MB-231 breast
[55] = system: HS 578T breast
[56] = system: SF-539 CNS
[57] = system: CCRF-CEM leukemia
[58] = system: COLO 205 colon

## Cc1c2cc(Cl)c3ccccc3c2c[n+]2ccccc12
[1]
  GI50: 3.62 µM
  TGI: 15.5 µM
[2]
  GI50: 12.8 µM
  TGI: 31.6 µM
[3]
  GI50: 0.388 µM
  TGI: 3.52 µM
[4]
  GI50: 1.8 µM
  TGI: 14.2 µM
[5]
  GI50: 2.04 µM
  TGI: 27.4 µM
[6]
  GI50: 4.27 µM
  TGI: 17.9 µM
[7]
  GI50: 2.46 µM
  TGI: > 100 µM
[8]
  GI50: 0.544 µM
  TGI: 2.53 µM
[9]
  GI50: 2.28 µM
  TGI: 15 µM
[10]
  GI50: 0.525 µM
  TGI: 2.76 µM
[11]
  GI50: 2.81 µM
  TGI: 20.1 µM
[12]
  GI50: > 49.4 µM
  TGI: > 100 µM
[13]
  GI50: 14 µM
  TGI: 43.1 µM
[14]
  GI50: 8.54 µM
  TGI: > 100 µM
[15]
  GI50: 2.98 µM
  TGI: 27.2 µM
[16]
  GI50: 2.61 µM
  TGI: 13.3 µM
[17]
  GI50: 4.12 µM
  TGI: 16.9 µM
[18]
  GI50: 1.95 µM
  TGI: 9.31 µM
[19]
  GI50: 9.18 µM
  TGI: 60.3 µM
[20]
  GI50: 12.3 µM
  TGI: > 65.5 µM
[21]
  GI50: 2.4 µM
  TGI: 15.2 µM
[22]
  GI50: 0.364 µM
  TGI: 1.58 µM
[23]
  GI50: 2.13 µM
  TGI: 12.4 µM
[24]
  GI50: 21.8 µM
  TGI: > 100 µM
[25]
  GI50: 4.5 µM
  TGI: 34.9 µM
[26]
  GI50: > 100 µM
  TGI: > 100 µM
[27]
  GI50: 4.11 µM
  TGI: 33 µM
[28]
  GI50: 1.22 µM
  TGI: 2.92 µM
[29]
  GI50: 23.1 µM
  TGI: > 100 µM
[30]
  GI50: 2.24 µM
  TGI: 16.1 µM
[31]
  GI50: 22 µM
  TGI: > 100 µM
[32]
  GI50: 9.18 µM
  TGI: > 100 µM
[33]
  GI50: 2.42 µM
  TGI: 26.7 µM
[34]
  GI50: 0.468 µM
  TGI: 3.61 µM
[35]
  GI50: 15 µM
  TGI: 38.9 µM
[36]
  GI50: 3.58 µM
  TGI: 11.5 µM
[37]
  GI50: 7.75 µM
  TGI: 46 µM
[38]
  GI50: 2.71 µM
  TGI: 17.5 µM
[39]
  GI50: 7.2 µM
  TGI: 32.9 µM
[40]
  GI50: 19.2 µM
  TGI: 55.3 µM
[41]
  GI50: 1.8 µM
  TGI: 4.87 µM
[42]
  GI50: 41.8 µM
  TGI: > 100 µM
[43]
  GI50: 10.3 µM
  TGI: 53.5 µM
[44]
  GI50: 3.74 µM
  TGI: 24.2 µM
[45]
  GI50: 2.74 µM
  TGI: 23.5 µM
[46]
  GI50: 1.62 µM
  TGI: 5.41 µM
[47]
  GI50: 29.7 µM
  TGI: > 100 µM
[48]
  GI50: 0.378 µM
  TGI: 2.8 µM
[49]
  GI50: 1.21 µM
  TGI: 5.4 µM
[50]
  GI50: 0.813 µM
  TGI: 6.58 µM
[51]
  GI50: 4.1 µM
  TGI: 17.9 µM
[52]
  GI50: 4.22 µM
  TGI: 17.8 µM
[53]
  GI50: 2.31 µM
  TGI: 12.9 µM
[54]
  GI50: 11.9 µM
  TGI: 39.8 µM
[55]
  GI50: 1.12 µM
  TGI: 11.9 µM
[56]
  GI50: 1.71 µM
  TGI: 9.35 µM
[57]
  GI50: 3.36 µM
  TGI: 26.3 µM
[58]
  GI50: 1.83 µM
  TGI: 10.2 µM
